In this test the test system is CEM cells HIV-1 protection, formazan growth assay. In words: NCI AIDS Antiviral Assay. Particulars: for IC50: measured here: growth of uninfected CEM cells. The method in brief:
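Category rules: moderately active means at least 50% protection on retest, and confirmed active means 100% protection reproducibly. The underlying data came from a formazan growth assay in HIV-1-infected CEM cells.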

By EC50 is commonly meant the concentration at which the effect is half-maximal. A word on the IC50: it is the concentration that gives 50% inhibition. Low readings indicate greater potency in that assay, high ones weaker potency in that assay.

Activity calls are given as the source filed them.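 The calls were made as follows: active = compounds giving half or more protection of infected cells from virus-caused growth loss, again on retest; inactive = the rest.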 Where a SMILES comes first, the peptide text is derived from it. Bridges are numbered along the chain shown (N, C = ends). [ ]: non-standard residue; d: D form. The star is where a group is joined. ξ: configuration not given here. PhAc = O=C(Cc1ccccc1)*; ξP = O=C(O)C1CCCN1

Take `COc1ccc(C2CC(=O)c3c(OC(C)=O)cc(OC(C)=O)cc3O2)cc1OC(C)=O` (stereo unspecified): the EC50 was greater than 200 µM and the IC50 came out at 7.76 µM.

Turning to `CCCCN(CCC/C=C/OC)C(C#N)c1ccccc1` (stereo unspecified), the EC50 is greater than 871 µM and the 50% inhibitory concentration (IC50) was greater than 871 µM.

Turning to `CC1C(c2ccccc2O)c2cc3c(cc2OC1N1CCOCC1)OCO3` (stereo unspecified), the EC50 is greater than 200 µM and the IC50 is 42.7 µM.

For the compound `CCOC(=O)OC1C(Br)C2CCC1(C)C2(C)C` (stereo unspecified), the EC50 is greater than 200 µM and the half-maximal inhibitory concentration (IC50) is greater than 200 µM.

Take `Nc1ccn(C2CC(CO)C(CO)C2)c(=O)n1` (stereo unspecified): the EC50 was greater than 209 µM and the IC50 was greater than 209 µM.

For the compound `Cn1c2c(c(=O)n(C)c1=O)CN(Cc1ccccc1)CN2`, the EC50 was greater than 200 µM and the half-maximal inhibitory concentration (IC50) is greater than 200 µM.

For `C=C(Nc1nc2ccc(C)cc2s1)C(=O)C(CC)C(=O)C(CC)CC1C(=O)NC(=O)NC1=O` (stereo unspecified), the EC50 was greater than 39.8 µM and the IC50 was greater than 39.8 µM.

For the compound `CCC(C)[C@H](NC(=O)N[C@H](C)c1ccccc1)C(=O)OC` (stereo partly specified), the EC50 was greater than 200 µM and the half-inhibitory concentration (IC50) was greater than 200 µM.

As for `CCCCCc1c2nc(c(CCCCC)c3ccc([nH]3)c(CCCCC)c3ccc([nH]3)c(CCCCC)c3nc1C=C3)C=C2`, the EC50 was greater than 200 µM and the 50% inhibitory concentration (IC50) was greater than 200 µM.

As to `CC1CN=C(N(C(=O)Nc2ccccc2)c2ccccc2)S1` (stereo unspecified), the EC50 was greater than 200 µM and the IC50 is greater than 200 µM.

For the compound `c1ccc(C2=C(c3ccccc3)P(c3ccccc3)C2)cc1` (stereo unspecified), the outcome was inactive.

Take `S=C(SSSSC(=S)N(C1CCCCC1)C1CCCCC1)N(C1CCCCC1)C1CCCCC1`: the EC50 is greater than 200 µM and the IC50 amounted to 126 µM.

`Nc1c(-c2nc3ccccc3[nH]2)sc(=S)n1-c1ccc(Cl)cc1`: the EC50 was greater than 14.5 µM and the half-maximal inhibitory concentration (IC50) is greater than 14.5 µM.

Turning to `COc1ccc(/C=C/c2ccnc3ccccc23)cc1`, the EC50 was 0.0631 µM and the concentration for half-maximal inhibition (IC50) was 14.1 µM.

`CC12CC3(C)CC(C)(C1)CC(C(NC(C)(C)C)C(=O)O)(C2)C3` (stereo unspecified): the outcome was inactive.

For the compound `CN1C(CC(O)c2ccccc2)CCCC1CC(O)c1ccccc1` (stereo unspecified), the EC50 was greater than 200 µM and the IC50 was greater than 200 µM.

Turning to `CCOc1ccc2nc(NC(=O)C(=O)C(c3cnc4ccccc4n3)[N+](=O)[O-])sc2c1` (stereo unspecified), the EC50 was greater than 155 µM and the concentration for half-maximal inhibition (IC50) was greater than 155 µM.

Take `Cc1csc(=S)n1OC(=O)NC1CCCCC1`: the EC50 is greater than 912 µM and the IC50 was found to be 45.7 µM.

With `N#CC(NNC(=O)Cc1ccccc1)c1c(O)ccc2ccccc12` (stereo unspecified), the EC50 was greater than 56.2 µM and the IC50 stood at 3.89 µM.

Take `Cc1nn2c(C(=O)O)nnc2s1`: the EC50 was greater than 200 µM and the IC50 is greater than 200 µM.

As to `NCCCNCCNCCCN`, the EC50 is greater than 200 µM and the IC50 was greater than 200 µM.

For the compound `CCOC(=O)c1nc2cc(C(F)(F)F)ccc2nc1Nc1ccc(OC)cc1`, the EC50 was greater than 126 µM and the IC50 is greater than 126 µM.

As to `COC(=O)c1cc(C(=CC(=O)N[C@H]2CC[C@]3(C)C4CC[C@]5(C)[C@@H](C(C)CCCC(C)C)CC[C@H]5C4CC[C@H]3C2)c2cc(Cl)c(OC)c(C(=O)OC)c2)cc(Cl)c1OC` (stereo partly specified), the EC50 is greater than 100 µM and the half-maximal inhibitory concentration (IC50) is greater than 100 µM.

Consider `CCc1ccc(/C(C)=N/NC(N)=S)cc1`, for which the outcome was inactive.

For the compound `N#CC(/C=C/c1ccccc1)Nc1ccccc1N` (stereo unspecified), the EC50 was greater than 28.8 µM and the concentration for half-maximal inhibition (IC50) was greater than 28.8 µM.

As to `C=C1C(=O)O[C@H]2CC(C)C3C(O)CC(O)[C@@]3(C)C[C@H]12` (stereo partly specified), the EC50 was greater than 933 µM and the concentration for half-maximal inhibition (IC50) came to 6.03 µM.

Regarding `CC(C)[Si](OC12CCC(CC1O)CC2CO)(C(C)C)C(C)C` (stereo unspecified), the EC50 is greater than 200 µM and the IC50 amounted to 24.5 µM.

With `CCO/N=C(/CC)c1ccc(Br)s1`, the EC50 was greater than 200 µM and the IC50 stood at 102 µM.

With `COc1ccc(/C(=N/NC(N)=O)C(c2ccc(OC)cc2)C2C(=O)Oc3ccccc32)cc1` (stereo unspecified), the EC50 is greater than 30.2 µM and the IC50 is greater than 30.2 µM.

For the compound `CN(C)CCCNC(CC#N)CCC#N` (stereo unspecified), the EC50 is greater than 200 µM and the IC50 is greater than 200 µM.

`CO/C=C(/C#N)S(=O)(=O)/C(C#N)=C/OC`: the EC50 was greater than 200 µM and the IC50 was greater than 200 µM.

For `Cc1nn2c(=O)n(-c3cccc(-n4nnc5c(-c6ccccc6)c(C)nn5c4=O)c3C)nnc2c1-c1ccccc1`, the outcome was inactive.

Regarding `CSc1cccc(-n2c3nc(=O)n(C)c(=O)c-3nc3ccccc32)c1`, the result was inactive.

Regarding `O=C1c2ccccc2[Se](=O)N1c1ccccc1` (stereo unspecified), the EC50 was 1.17 µM and the IC50 came to 14.1 µM.

For the compound `c1cc(-c2cn[nH]c2)cc(-c2cn[nH]c2)c1`, the result was inactive.

`NC1=C(c2nc(-c3cc4ccccc4oc3=O)cs2)C(c2ccco2)c2c(c3ccccc3oc2=O)O1` (stereo unspecified): the EC50 was greater than 100 µM and the concentration for half-maximal inhibition (IC50) was greater than 100 µM.

For the compound `Cc1ccc(C2CC(=O)CC(c3ccc(C)cc3)C23C(=O)NC(=O)NC3=O)cc1` (stereo unspecified), the EC50 is greater than 100 µM and the IC50 was determined as 64.6 µM.

In the case of `FC1(F)[Se]C2C3CCC(C3)C2C1(F)F` (stereo unspecified), the EC50 was greater than 200 µM and the concentration for half-maximal inhibition (IC50) was greater than 200 µM.

On to `CC1(O)C[C@]23CC[C@H]4[C@@H](CC=C5C[C@@H](O)CC[C@@]54C)[C@@H]2CC[C@H]13` (stereo partly specified), for which the EC50 was greater than 200 µM and the IC50 was greater than 200 µM.

`COc1ccc2oc3c(C)cc4c(OC)nnc(OC)c4c3c2c1`: the EC50 is greater than 200 µM and the IC50 was 12.6 µM.

Turning to `CCOC(=O)C1=C(C)C2C=C(c3cccs3)CC(c3ccc(Cl)cc3)=C2OC1=O` (stereo unspecified), the EC50 was greater than 200 µM and the concentration for half-maximal inhibition (IC50) was 91.2 µM.

Regarding `S=C(NCc1ccccn1)N/N=C/c1ccccn1`, the EC50 was greater than 0.2 µM and the concentration for half-maximal inhibition (IC50) was 0.00794 µM.

With `Cc1cn(C2CCCCC2O)c(=O)[nH]c1=O` (stereo unspecified), the EC50 is greater than 302 µM and the IC50 was greater than 302 µM.

`O=S(=O)(c1ccccc1)C1(Sc2ccccc2)CC(Br)[C@@H](Br)C1` (stereo partly specified): the EC50 was greater than 15.1 µM and the IC50 was greater than 15.1 µM.

As for `CN(C)C(=O)Oc1c(-c2ccccc2)c(=O)n2c3ccccc3n3c(=O)n(C)c(=O)c1c23`, the EC50 was greater than 1.26 µM and the half-inhibitory concentration (IC50) is greater than 1.26 µM.

With `CCC/C(Cl)=N\OC(=O)Nc1cccc(C(F)(F)F)c1`, the EC50 is greater than 200 µM and the half-inhibitory concentration (IC50) stood at 6.76 µM.

`COc1cc(Br)c(-c2coc3c(OC)c(OC)ccc3c2=O)cc1OC`: the EC50 was greater than 50.1 µM and the half-inhibitory concentration (IC50) is greater than 50.1 µM.

Take `O=C(O)c1cc2sc(C(=O)O)cc2s1`: the result was inactive.

As to `COc1cc(CNc2nc3ccccc3nc2C(=O)O)cc(OC)c1OC`, the EC50 is greater than 200 µM and the half-maximal inhibitory concentration (IC50) came out at 74.1 µM.

Consider `CCOC(=O)C1(Cc2ccccc2)Cc2cc3c(cc2C1)CCC3`, for which the EC50 is greater than 200 µM and the half-maximal inhibitory concentration (IC50) came out at 33.9 µM.

Consider `Cc1ccc(/C=C(\C#N)c2ccccc2)cc1`, for which the EC50 was greater than 229 µM and the IC50 is greater than 229 µM.

As to `N=C1CSC2=NC3=C(CCC/C3=C\c3ccccc3)C(c3ccccc3)N12` (stereo unspecified), the EC50 was greater than 18.6 µM and the IC50 is greater than 18.6 µM.

On to `O=C(Cc1ccccc1)N[C@@H]1COC(=O)C2CCCN2C(=O)[C@@H]2CCCN2C1=O` (stereo partly specified) (PhAc-[dS]-Pro-[ξP]; ester 1-C), for which the EC50 is greater than 200 µM and the 50% inhibitory concentration (IC50) is greater than 200 µM.

Consider `CC1(C)CCCC2(C)[C@@H]1CC[C@]13C[C@](C)(CC[C@@H]21)[C@@H]3CO` (stereo partly specified), for which the EC50 was greater than 12.3 µM and the half-maximal inhibitory concentration (IC50) was greater than 12.3 µM.

For `CC(C)=CCOc1cc(O)c2c(c1)C(=O)c1cc(C)cc(O)c1C2=O`, the EC50 was greater than 50.1 µM and the IC50 is greater than 50.1 µM.

Consider `O=C(O)c1ccccc1-c1c2ccc(=Nc3ccccc3)cc-2oc2cc(Nc3ccc(S(=O)(=O)O)cc3)ccc12`, for which the concentration giving a half-maximal response (EC50) turned out to be 14.1 µM and the IC50 is greater than 200 µM.

Consider `O=c1c2cc(S(=O)(=O)Nc3ccccc3Cl)ccc2ncn1NS(=O)(=O)c1ccc(Br)cc1`, for which the outcome was inactive.

Consider `O=C1c2c(O)cccc2Cc2cc(CO)cc(O)c21`, for which the EC50 is greater than 200 µM and the concentration for half-maximal inhibition (IC50) came to 0.933 µM.

On to `NCCCCNCCCNC(=O)c1csc(-c2nc(CCN)sc2Cl)n1`, for which the EC50 was greater than 302 µM and the half-inhibitory concentration (IC50) came out at 18.6 µM.

`COC(=O)C(=O)C(C(=O)C(=O)Nc1ccc(Cl)cc1Cl)c1nc2ccc(Cl)cc2[nH]c1=O` (stereo unspecified): the EC50 was greater than 38 µM and the half-inhibitory concentration (IC50) is greater than 38 µM.

As to `CC(C)CCC[C@@H](C)C1CCC2[C@@H]3CC=C4C[C@@H](OC(=O)CCC(=O)NCC[N+](C)(C)CCCS(=O)(=O)[O-])CC[C@]4(C)C3CC[C@@]21C` (stereo partly specified), the outcome was inactive.

As for `Cc1cn(C2OC(CO)C(CN=[N+]=[N-])C2O)c(=O)[nH]c1=O` (stereo unspecified), the EC50 was greater than 200 µM and the IC50 is greater than 200 µM.

Turning to `CC1(C)CC2(C)CC1CC2(O)c1ccccc1` (stereo unspecified), the EC50 is greater than 219 µM and the half-inhibitory concentration (IC50) was determined as 61.7 µM.

For `CO[C@@H]1C=C[C@@]23c4cc5c(cc4C(=O)O[C@H]2CN(C)[C@H]3C1)OCO5`, the EC50 is greater than 380 µM and the IC50 was greater than 380 µM.

Consider `CCOC(=O)C(/C=N\C(=S)Nc1ccc(OCC)cc1)=C(/O)c1ccccc1`, for which the EC50 was greater than 200 µM and the concentration for half-maximal inhibition (IC50) was greater than 200 µM.

Take `CN(/N=C(\C(=O)O)c1ccccc1)C1=NCCN1`: the EC50 is greater than 200 µM and the concentration for half-maximal inhibition (IC50) was greater than 200 µM.

Take `Cc1cc(C2(c3ccc(O)c(C)c3)OS(=O)(=O)c3ccccc32)ccc1O`: the result was inactive.

Take `COc1ccc(P2(=S)OC(C)(C)C(C)(C)O2)cc1`: the EC50 was greater than 200 µM and the IC50 is greater than 200 µM.

Regarding `COC(=O)N(CO)CO`, the EC50 is greater than 200 µM and the half-inhibitory concentration (IC50) is greater than 200 µM.

Turning to `COc1ncc(C#CC(=O)c2ccccc2)c(OC)n1`, the EC50 is greater than 2 µM and the 50% inhibitory concentration (IC50) is 0.331 µM.

Take `CCCN(CCC)C(=O)Cc1c2n(c3ccccc13)CCCc1ccccc1-2`: the EC50 is greater than 13.8 µM and the IC50 was greater than 13.8 µM.

As for `COc1c(Cl)cc(C(=CCC(=O)O)c2cc(Cl)c(OC)c(C(=O)O)c2)cc1C(=O)O`, the EC50 is 30.2 µM and the IC50 was greater than 200 µM.

As for `C[N+](C)(C)CC(=O)N/N=C(/CC(=O)CC(C1=C(O)c2ccccc2OC1)c1ccccc1)C(=O)Nc1cccc(Cl)c1` (stereo unspecified), the EC50 was greater than 151 µM and the concentration for half-maximal inhibition (IC50) was greater than 151 µM.

The values above are taken from PubChem BioAssay AID179 (DTP/NCI, 2004).
